Converted amounts (≈) assume the structure as drawn.
How the values were obtained:
Test in all cases: MIC, antibacterial activity (series dilution)
Format in all cases: cell-based
[1] = system: Staph. 133; conditions: 37° C., about 20 hours
Description: (§1) The MIC values were determined with the aid of the microdilution method in BH medium. Each test substance was dissolved in the nutrient medium. A concentration series of the test substances was prepared in the microtiter plate by serial dilution. Overnight cultures of the pathogens, which were first diluted 1:250 in the nutrient medium, were used for the inoculation. 100 μl portions of inoculation solution were added to 100 μl of the dilute nutrient solutions containing the active compound. The microtiter plates were incubated at 37° C. and read off after about 20 hours. The MIC value (μg/ml) indicates the lowest concentration of active compound at which no growth was detectable. The minimum inhibitory concentrations (MIC) were determined by the series dilution method on Iso-Sensitest agar (Oxoid). A series of agar plates which contained concentrations of the active compound which decreased by two-fold dilution each time was prepared for each test substance. The agar plates were inoculated with a multipoint inoculator (Denley). Overnight cultures of the pathogens which had been diluted beforehand such that each inoculation point contained about 10^4 colony-forming particles were used for the inoculation. The inoculated agar plates were incubated at 37° C. and the germ growth was read off up to about 20 hours. The MIC value (μg/ml) indicates the lowest concentration of active compound at which no growth was detectable with the naked eye.

[2] = system: Staph. 9TV; conditions: 37° C., about 20 hours
Description: as §1

[3] = system: Staph. 48N; conditions: 37° C., about 20 hours
Description: as §1

[4] = system: Klebs. 57 USA; conditions: 37° C., about 20 hours
Description: as §1

[5] = system: Staph 25701; conditions: 37° C., about 20 hours
Description: as §1

[6] = system: Psdm. Bonn; conditions: 37° C., about 20 hours
Description: as §1

[7] = system: E. coli Neumann; conditions: Escherichia coli, 37° C., about 20 hours
Description: as §1

MIC [1]	MIC [2]	MIC [3]	MIC [4]	MIC [5]	MIC [6]	MIC [7]	Compound
4 mg/L (≈ 8.98 µM)	4 mg/L (≈ 8.98 µM)	2 mg/L (≈ 4.49 µM)	> 64 mg/L	2 mg/L (≈ 4.49 µM)	> 64 mg/L	> 64 mg/L	CC(=O)NC[C@H]1CN(c2ccc3nc(S(=O)(=O)Cc4ccccc4)sc3c2)C(=O)O1 [Example 33, (5S)-3-(2-Benzylsulphonyl-benzo[4,5-d]thiazol-6-yl)-5-acetylaminomethyloxazolidin-2-one]
2 mg/L (≈ 6.91 µM)	1 mg/L (≈ 3.46 µM)	1 mg/L (≈ 3.46 µM)	> 64 mg/L	1 mg/L (≈ 3.46 µM)	> 64 mg/L	> 64 mg/L	CC(=O)NC[C@H]1CN(c2ccc3nc(C)oc3c2)C(=O)O1 [Example 25, (5S)-3-(2-Methyl-benzo[4,5-d]oxazol-6-yl)-5-acetamino-methyl-oxazolidin-2-one]
2 mg/L (≈ 5.93 µM)	0.25 mg/L (≈ 0.741 µM)	1 mg/L (≈ 2.96 µM)	> 64 mg/L	0.25 mg/L (≈ 0.741 µM)	> 64 mg/L	> 64 mg/L	CSc1nc2ccc(N3C[C@H](CNC(C)=O)OC3=O)cc2s1 [Example 24, (5S )-3-(2-Methylthio-benzo[4,5-d]thiazol-6-yl)-5-acetylaminomethyl-oxazolidin-2-one]
2 mg/L (≈ 5.41 µM)	1 mg/L (≈ 2.71 µM)	2 mg/L (≈ 5.41 µM)	> 64 mg/L	1 mg/L (≈ 2.71 µM)	> 64 mg/L	> 64 mg/L	CC(=O)NC[C@H]1CN(c2ccc3nc(S(C)(=O)=O)sc3c2)C(=O)O1 [Example 37]
1 mg/L (≈ 2.83 µM)	0.5 mg/L (≈ 1.41 µM)	2 mg/L (≈ 5.66 µM)	> 64 mg/L	1 mg/L (≈ 2.83 µM)	> 64 mg/L	> 64 mg/L	CC(=O)NC[C@H]1CN(c2ccc3nc([S+](C)[O-])sc3c2)C(=O)O1 (stereo partly drawn) [Example 32, (5S)-3-(2-Methylsulphinyl-benzo[4,5-d]-thiazol-6-yl)-5-acetylaminomethyl-oxazolidin-2-one]
4 mg/L (≈ 9.31 µM)	2 mg/L (≈ 4.66 µM)	4 mg/L (≈ 9.31 µM)	> 64 mg/L	4 mg/L (≈ 9.31 µM)	> 64 mg/L	> 64 mg/L	CC(=O)NC[C@H]1CN(c2ccc3nc([S+]([O-])Cc4ccccc4)sc3c2)C(=O)O1 (stereo partly shown) [Example 36]
2 mg/L (≈ 6.55 µM)	1 mg/L (≈ 3.27 µM)	1 mg/L (≈ 3.27 µM)	> 64 mg/L	1 mg/L (≈ 3.27 µM)	> 64 mg/L	> 64 mg/L	CC(=O)NC[C@H]1CN(c2ccc3nc(C)sc3c2)C(=O)O1 [Example 26]

Reference: patent US5529998A, “Benzoxazolyl- and benzothiazolyloxazolidinones” (Bayer Aktiengesellschaft, priority 1994, dated 1996)
